The text below walks through data of US20120121540A1 (priority 2007, published 2012).

A short description of the assay: HCV replicon assay (luciferase reporter, ET cell line). Format: cell-based. Conditions: Hepatitis C virus, HCV replicon luciferase activity in ET cells. On the procedure: A cell line, ET (Huh-lucubineo-ET) is used for screening of compounds for inhibiting HCV RNA dependent RNA polymerase. The ET cell line is stably transfected with RNA transcripts harboring a I389 luc-ubi-neo/NS3-3′/ET; replicon with firefly luciferase-ubiquitin-neomycin phosphotransferase fusion protein and EMCV-IRES driven NS3-5B polyprotein containing the cell culture adaptive mutations (E1202G; T1280I; K1846T) (Krieger at al, 2001 and unpublished). The ET cells are grown in DMEM (Dulbeco's Modified Eagle's Medium), supplemented with 10% fetal calf serum, 2 mM Glutamine, Penicillin (100 IU/mL)/Streptomycin (100 μg/mL), 1× nonessential amino acids, and 250 μg/mL G418 (“Geneticin”). They are all available through Life Technologies (Bethesda, Md.). The cells are plated at 0.5−1.0×10^4 cells/well in the 96 well plates and incubated for 24 hrs before adding test compound. The compounds are added to the cells to achieve a final concentration of 0.1 nM to 50 μm and a final DMSO (dimethylsulfoxide) concentration of 0.5%. Luciferase activity is measured 48-72 hours later by adding a lysis buffer and the substrate (Catalog number Glo-lysis buffer E2661 and Bright-Glo luciferase system E2620 Promega, Madison, Wis.). Cells should not be too confluent during the assay. Percent inhibition of replication data is plotted relative to no compound control. Under the same condition, cytotoxicity of the compounds are determined using cell proliferation reagent, WST-1 (Roche, Germany). The compounds showing antiviral activities, but no significant cytotoxicities are chosen to determine EC50 and TC50. For these determinations, a 10 point, 2-fold serial dilution for each compound was used, which spans a concentration range of 1000 fold. EC50 and similarly TC50 values were calculated by fitting % inhibition at each concentration to the following equation:
% inhibition=100%/[(EC50/[I])^b+1]
where b is Hill's coefficient.
% inhibition values at a specific concentration, […] for example, can also be derived from the equation above.
A general note: Replicon systems follow genome replication, usually without infectious particles.

Broadly, the inhibition is the share of the control response that was lost under treatment. Read a low inhibition as a response near the control.

The compound `COc1cc(-c2ccccc2)cc2cc(C(=O)NCc3cccs3)nn12` [Compound 117, 7-Methoxy-5-phenyl-pyrazolo[1,5-a]pyridine-2-carboxylic Acid (thiophen-2-ylmethyl)-amide] gave an inhibition at 10 µM of 25.8%.

For `O=C(NCc1cccs1)c1nn2c(I)cc(-c3ccccc3)cc2c1I` [Compound 119, 3,7-diiodo-5-phenyl-pyrazolo[1,5-a]pyridine-2-carboxylic Acid (thiophen-2-ylmethyl)-amide], the inhibition at 10 µM amounted to 71.5%.

Consider `O=C(NCc1cccs1)c1nn2c(I)cc(-c3ccccc3)cc2c1Br` [Compound 120, 3-Bromo-7-iodo-5-phenyl-pyrazolo[1,5-a]pyridine-2-carboxylic Acid (thiophen-2-ylmethyl)-amide], for which the inhibition at 10 µM is 66.6%. For `O=C(NCc1cccs1)c1nn2c(I)cc(-c3ccccc3)cc2c1Cl` [Compound 121, 3-Chloro-7-iodo-5-phenyl-pyrazolo[1,5-a]pyridine-2-carboxylic Acid (thiophen-2-ylmethyl)-amide] the value was 73.9%; for `O=C(NCc1cccs1)c1nn2c(C(F)(F)F)cc(-c3ccccc3)cc2c1Cl` [Compound 122, 3-Chloro-5-phenyl-7-trifluoromethyl-pyrazolo[1,5-a]pyridine-2-carboxylic Acid (thiophen-2-ylmethyl)-amide], 94.3%. For `O=C(NCc1ccc(Cl)s1)c1nn2c(C(F)(F)F)cc(-c3ccccc3)cc2c1Cl` [Compound 123, 3-Chloro-5-phenyl-7-trifluoromethyl-pyrazolo[1,5-a]pyridine-2-carboxylic Acid (5-chloro-thiophen-2-ylmethyl)-amide] the value was 46.1%; for `O=C(NCc1ccco1)c1cc2cc(-c3ccccc3)cc(I)n2n1` [Compound 124, 7-Iodo-5-phenyl-pyrazolo[1,5-a]pyridine-2-carboxylic Acid (furan-2-ylmethyl)-amide], 54.3%; for `O=C(NCCc1cccs1)c1cc2cc(-c3ccccc3)cc(I)n2n1` [Compound 125, 7-Iodo-5-phenyl-pyrazolo[1,5-a]pyridine-2-carboxylic Acid (2-thiophen-2-yl-ethyl)-amide], 48%.

Compound `O=C(NCc1ccccc1F)c1cc2cc(-c3ccccc3)cc(I)n2n1` [Compound 128, 7-Iodo-5-phenyl-pyrazolo[1,5-a]pyridine-2-carboxylic Acid 2-fluoro-benzylamide] came in with an inhibition at 10 µM of 65.2%. The same measure for `O=C(NCc1ccccc1)c1cc2cc(-c3ccccc3)cc(I)n2n1` [Compound 129, 7-Iodo-5-phenyl-pyrazolo[1,5-a]pyridine-2-carboxylic Acid benzylamide]: 43%; for `O=C(NCCc1ccccc1)c1cc2cc(-c3ccccc3)cc(I)n2n1` [Compound 130, 7-Iodo-5-phenyl-pyrazolo[1,5-a]pyridine-2-carboxylic Acid phenethyl-amide]: 32.3%. For `O=C(NCC1CCCO1)c1cc2cc(-c3ccccc3)cc(I)n2n1` (stereo not shown) [Compound 131, 7-Iodo-5-phenyl-pyrazolo[1,5-a]pyridine-2-carboxylic Acid (tetrahydro-furan-2-ylmethyl)-amide] the value was 49.2%.

`O=C(NCc1cccs1)c1cc2cc(-c3ccco3)cc(C(F)(F)Cl)n2n1` [Compound 133, 7-(Chloro-difluoro-methyl)-5-furan-2-yl-pyrazolo[1,5-a]pyridine-2-carboxylic Acid (thiophen-2-ylmethyl)-amide] had an inhibition at 10 µM of 99.8%. For `O=C(NCc1cccs1)c1cn2cc(-c3ccccc3)cc(C(F)(F)F)c2n1` [Compound 137, 6-Phenyl-8-trifluoromethyl-imidazo[1,2-a]pyridine-2-carboxylic Acid (thiophen-2-ylmethyl)-amide] the value was 63%; for `O=C(NCc1cccs1)c1cn2cc(-c3ccco3)cc(C(F)(F)F)c2n1` [Compound 138, 6-Furan-2-yl-8-trifluoromethyl-imidazo[1,2-a]pyridine-2-carboxylic Acid (thiophen-2-ylmethyl)-amide], 92.1%. For `O=C(NCc1cccs1)c1nc2c(C(F)(F)F)cc(-c3ccccc3)cn2c1Br` [Compound 139, 3-Bromo-6-phenyl-8-trifluoromethyl-imidazo[1,2-a]pyridine-2-carboxylic Acid (thiophen-2-ylmethyl)-amide] the value was 97.9%; for `O=C(NCc1cccs1)c1cc2cc(-c3ccco3)cc(Cl)n2n1` [Compound 145, 7-Chloro-5-furan-2-yl-pyrazolo[1,5-a]pyridine-2-carboxylic Acid (thiophen-2-ylmethyl)-amide], 49.8%. The same measure for `CN(Cc1cccs1)C(=O)c1cn2cc(-c3ccco3)cc(C(F)(F)F)c2n1` [Compound 146, 6-Furan-2-yl-8-trifluoromethylimidazo[1,2-a]pyridine-2-carboxylic Acid Methyl-thiophen-2-ylmethyl-amide]: 35.1%; for `CN(Cc1cccs1)C(=O)c1cc2cc(-c3ccccc3)cc(C(F)(F)F)n2n1` [Compound 147, 5-phenyl-7-trifluoromethyl-pyrazolo[1,5-a]pyridine-2-carboxylic Acid methyl-thiophen-2-ylmethyl-amide]: 26.8%; for `O=C(NCc1cccs1)c1cc2cc(-c3ccccc3)cc(N3CCOCC3)n2n1` [Compound 148, 7-Morpholin-4-yl-5-phenyl-pyrazolo[1,5-a]pyridine-2-carboxylic Acid (thiophen-2-ylmethyl)-amide]: 27.7%. `CN(C)c1cc(-c2ccccc2)cc2cc(C(=O)NCc3cccs3)nn12` [Compound 150, 7-dimethylamino-5-phenyl-pyrazolo[1,5-a]pyridine-2-carboxylic Acid (thiophen-2-ylmethyl)-amide]: the inhibition at 10 µM was 43.5%. For `O=C(NCc1cccs1)c1nc2c(C(F)(F)F)cc(-c3ccco3)cn2c1Cl` [Compound 152, 3-Chloro-6-furan-2-yl-8-trifluoromethyl-imidazo[1,2-a]pyridine-2-carboxylic acid (thiophen-2-ylmethyl)-amide] the value was 92.5%; for `O=C(NCc1cccs1)c1cc2cc(-c3ccccc3)cc(NCCO)n2n1` [Compound 154, 7-(2-Hydroxy-ethylamino)-5-phenyl-pyrazolo[1,5-a]pyridine-2-carboxylic acid (thiophen-2-ylmethyl)-amide], 58.8%; for `Cc1c(C(=O)NCc2cccs2)nc2c(C(F)(F)F)cc(-c3ccco3)cn12` [Compound 156, 6-Furan-2-yl-3-methyl-8-trifluoromethyl-imidazo[1,2-a]pyridine-2-carboxylic acid (thiophen-2-ylmethyl)-amide], 89.3%. As for `O=C(NCc1cccs1)c1nc2c(C(F)(F)F)cc(-c3ccoc3)cn2c1Cl` [Compound 157, 3-Chloro-6-furan-3-yl-8-trifluoromethyl-imidazo[1,2-a]pyridine-2-carboxylic acid (thiophen-2-ylmethyl)-amide], the inhibition at 10 µM is 97.8%.

`O=C(NCc1ccco1)c1nc2c(C(F)(F)F)cc(-c3ccco3)cn2c1Cl` [Compound 158, 3-Chloro-6-furan-2-yl-8-trifluoromethyl-imidazo[1,2-a]pyridine-2-carboxylic acid (furan-2-ylmethyl)-amide] displayed an inhibition at 10 µM of 88.5%. `O=C(NCc1ccoc1)c1nc2c(C(F)(F)F)cc(-c3ccco3)cn2c1Cl` [Compound 159, 3-Chloro-6-furan-2-yl-8-trifluoromethyl-imidazo[1,2-a]pyridine-2-carboxylic acid (furan-3-ylmethyl)-amide]: 10 µM produced 94.8% inhibition. As to `O=C(NCc1cccs1)c1nc2c(C(F)(F)F)cc(-c3ccsc3)cn2c1Cl` [Compound 160, 3-Chloro-6-thiophen-3-yl-8-trifluoromethyl-imidazo[1,2-a]pyridine-2-carboxylic acid (thiophen-2-ylmethyl)-amide], the inhibition at 10 µM amounted to 97.3%. For `CC(NC(=O)c1nc2c(C(F)(F)F)cc(-c3ccco3)cn2c1Cl)c1cccs1` (stereo not shown) [Compound 162, 3-Chloro-6-furan-2-yl-8-trifluoromethyl-imidazo[1,2-a]pyridine-2-carboxylic acid (1-thiophen-2-yl-ethyl)-amide] the value was 44.2%; for `O=C(NCc1ccccn1)c1nc2c(C(F)(F)F)cc(-c3ccco3)cn2c1Cl` [Compound 163, 3-Chloro-6-furan-2-yl-8-trifluoromethyl-imidazo[1,2-a]pyridine-2-carboxylic acid (pyridin-2-ylmethyl)-amide], 95.4%; for `O=C(NCc1cccnc1)c1nc2c(C(F)(F)F)cc(-c3ccco3)cn2c1Cl` [Compound 164, 3-Chloro-6-furan-2-yl-8-trifluoromethyl-imidazo[1,2-a]pyridine-2-carboxylic acid (pyridin-3-ylmethyl)-amide], 70.1%.
